{
  "source": "patent US20080317728A1",
  "about": "“Lowering Uric Acid to Prevent or Accelerate Recovery of Acute Renal Failure” (UNIVERSITY OF FLORIDA RESEARCH FOUNDATION, INC., priority 2004, published 2008)",
  "key": {"[1]": {"tested_on": "remnant kidney rats (5/6 nephrectomy)", "test": "Micropuncture (glomerular hemodynamics) in remnant kidney rats", "type": "in vivo, Sprague-Dawley rats", "set-up": "SNGFR lower than RK control group / glomerular plasma flow lower than RK control group / Kf lower than RK control group / afferent resistance higher compared to RK control / efferent resistance higher compared to RK control: concentration or dose not given beside the values", "procedure": "(§1) Experimental Design: All animal procedures were approved by the Animal Care Committee. Male 300-350 g Sprague-Dawley rats were used in all experiments.\n(§2) Hyperuricemia in remnant kidney rats on normal sodium diet: Under light anesthesia with ether, 5/6 nephrectomy was performed by removal of the right kidney and selective ligation of 2-3 branches of left renal artery. To induce hyperuricemia rats were given OA (750 mg/kg) by gastric gavage starting the day after the renal ablation. To prevent hyperuricemia AP was administered in the drinking water (150 mg/L). The following groups were studied: 5/6 Nx (n=10); 5/6 Nx+OA (n=12) and 5/6 Nx+OA+AP (n=13). Systolic blood pressure, proteinuria and serum uric acid were measured at baseline and after 25-28 days of follow-up. Micropuncture studies were performed at 4 weeks.\n(§3) Micropuncture: Animals were anesthetized with pentobarbital sodium (30 mg/kg ip) and placed on a thermoregulated table to maintain body temperature at 37° C. Trachea, jugular veins, femoral arteries, and the left ureter were catheterized with polyethylene tubing (PE-240, PE-50, and PE-10). The left kidney was exposed, placed in a Lucite holder, sealed with agar, and covered with Ringer's solution. Mean arterial pressure (MAP) was monitored with a pressure transducer (Model p23 db; Gould, San Juan, PR) and recorded on a polygraph (Grass Instruments, Quincy, Mass., USA). Blood samples were taken periodically and replaced with blood from a donor rat. Rats were maintained under euvolemic conditions by infusion of 10 ml/kg of body weight of isotonic rat plasma during surgery, followed by an infusion of 25% polyfructosan, at 2.2 ml/h (Inutest, Laevosan-Gesellschaft, Linz, Austria). After 60 min, five to six 3-min collection samples of proximal tubular fluid were obtained to determine flow rate and polyfructosan concentration. Intratubular pressure under free-flow and stop-flow conditions and peritubular capillary pressure were measured in other proximal tubules with a servo-null device (Servo Nulling Pressure System; Instrumentation for Physiology and Medicine, San Diego, Calif., USA). Polyfructosan was measured in plasma samples. Glomerular colloid osmotic pressure was estimated in protein from blood of the femoral artery (Ca) and surface efferent arterioles (Ce). Polyfructosan concentrations were determined by the technique of Davidson and Sackner (Davidson W D, Sackner Mass.: Simplification of the Antrhone Method for the Determination of Inulin in Clearance Studies. J. Lab Clin. Med. 62:351-356, 1963). The volume of fluid collected from individual proximal tubules was estimated from the length of the fluid column in a constant bore capillary tube of known internal diameter. Concentration of tubular polyfructosan was measured by the method of Vurek and Pegram (Vurek G G, Pegram S E: Fluorometric method for the determination of nanogram quantities of inulin. Ann. Biochem 16:409-419, 1966). Protein concentration in afferent and efferent samples was determined according to the method of Viets et al. (Viets J W, Deen W M, Troy J L, Brenner B M: Determination of serum protein concentration in nanoliter blood samples using fluorescamine or 9-phthalaldehyde. Anal. Biochem 88:513-521, 1978). MAP, GFR, single-nephron GFR (SNGFR), glomerular capillary hydrostatic pressure (Pgc), single-nephron plasma flow (QA), afferent (RA) and efferent (RE) resistances, and Kf, were calculated according to equations given elsewhere (Baylis C, Deen W M, Myers B D, Brenner B M: Effects of some vasodilator drugs on transcapillary fluid exchange in renal cortex. Am. J. Physiol 230:1148-1158, 1976).\n(§4) Statistical analysis. Values are expressed as mean±standard error (SE). Differences between groups were evaluated by ANOVA with appropriate correction for multiple comparisons (Bonferroni). The relation between variables was assessed by correlation analysis."}, "[2]": {"tested_on": "remnant kidney rats (5/6 nephrectomy)", "test": "Hyperuricemia in remnant kidney rats: serum uric acid, systolic blood pressure, proteinuria, body weight", "type": "in vivo, Sprague-Dawley rats", "procedure": "as §1, §2\nEvaluation: In all studies, systolic blood pressure (SBP) was measured by tail cuff sphyngomanometer using an automated system (Narco Biosystems, Houston Tex., USA). All animals were preconditioned for blood pressure measurements 1 week before each experiment. Proteinuria was determined by turbidimetry by the method of trichloroacetic acid (Henry R J, Sobel Ch, Segalove M: Turbidimetric determination of proteins with sulfosalicylic and trichloroacetic acids. Proc Soc Exp Biol Med 92:748-751, 1956). Serum uric acid was measured by colorimetric phosphotungstic acid method using a commercial kit (Wiener Lab, Argentina).\nas §4"}, "[3]": {"tested_on": "normal rats on normal sodium diet", "test": "Micropuncture (glomerular hemodynamics) in normal rats on normal sodium diet", "type": "in vivo, Sprague-Dawley rats", "procedure": "as §1\nHyperuricemia in normal rats on normal sodium diet: To produce hyperuricemia, rats were administered oxonic acid (OA) (Sigma, St Louis Mo., USA) 750 mg/kg body weight by gastric gavage. To prevent the rise of serum uric acid induced by OA, allopurinol (AP) (Sigma, St Louis Mo., USA) was administered in drinking water (150 mg/L). We studied the following groups: Control (n=8); OA (n=7) and OA plus allopurinol (n=9). Systolic blood pressure and serum uric acid were measured at baseline and after 30-33 days of follow-up. Micropuncture studies were performed at 5 weeks.\nas §3, §4"}, "Male Sprague-Dawley rats": {"tested_on": "Male Sprague-Dawley rats", "test": "Hyperuricemia and serum nitrites/nitrates (NOx) in rats, Example 2", "type": "in vivo", "conditions": "for serum uric acid: OA 750 mg/kg/day gavage, AP 150 mg/L drinking water; for Serum nitrites and nitrates (NOx): chemiluminescence", "procedure": "Male Sprague-Dawley rats were housed in standard conditions and fed normal diets. We induced hyperuricemia with an uricase inhibitor, oxonic acid (OA; 750 mg/kg/day), by gavage, with control rats receiving vehicle. Allopurinol (AP) was used to block hyperuricemia by placing AP in the drinking water (150 mg/L). Rats were divided into four groups: (1) Control, (2) AP only, (3) OA only, and (4) OA+AP. Systolic blood pressure was measured using a tail-cuff sphygmomanometer. The amount of drinking water consumed and changes in body weight were noted. Rats were sacrificed at one and seven days. Serum was analyzed for uric acid concentration and nitrites/nitrates (NOx) by chemiluminescence method. (Prabhakar SS: Inhibition of mesangial iNOS by reduced extracellular pH is associated with uncoupling of NADPH oxidation. Kidney Int 61:2015-2024, 2002). Statistical analysis between subgroups was performed using ANOVA."}, "[4]": {"conditions": "micropuncture at 4 weeks, mean±SE"}, "[5]": {"conditions": "micropuncture at 5 weeks, mean±SE"}},
  "note": "Where “and” joins values, the source holds several entries; their conditions need not be identical. Identical values can stand only once.",
  "data": [
    {"smiles": "Oc1ncnc2[nH]ncc12", "note": "[AP, allopurinol]", "values": [
      {"measurement": "PGC, in words", "setting": "[1]; AP with oxonic acid, in the presence of systemic hypertension", "value": "normal and significantly lower than RK hyperuricemic rats"},
      {"measurement": "SNGFR (single-nephron GFR)", "setting": "[1]; [4]", "value": 53, "unit": "nL/min"},
      {"measurement": "effect on SBP", "setting": "[2]; concomitant with oxonic acid", "value": "only a marginal effect"},
      {"measurement": "effect on hyperuricemia", "setting": "[2]; concomitant with oxonic acid", "value": "prevented"},
      {"measurement": "effect on proteinuria", "setting": "[2]; concomitant with oxonic acid", "value": "prevented"},
      {"measurement": "effect on glomerular hemodynamic alterations of hyperuricemia", "setting": "[3]; concomitant with oxonic acid", "value": "prevented these alterations"},
      {"measurement": "change in NOx concentration", "setting": "Male Sprague-Dawley rats; rats treated with AP alone", "value": "did not show a significant change"},
      {"measurement": "change in serum UA concentration", "setting": "Male Sprague-Dawley rats; rats treated with AP alone", "value": "did not show a significant change"},
      {"measurement": "serum uric acid", "setting": "Male Sprague-Dawley rats; rats, 1 day", "value": "1.52 ± 0.3", "unit": "mg/dL"},
      {"measurement": "Serum nitrites and nitrates (NOx)", "setting": "Male Sprague-Dawley rats; rats, 1 day", "value": "17.4 ± 0.8", "unit": "µmol/L"},
      {"measurement": "serum uric acid", "setting": "Male Sprague-Dawley rats; rats, 7 days", "value": "0.3 ± 0.2", "unit": "mg/dL"},
      {"measurement": "Serum nitrites and nitrates (NOx)", "setting": "Male Sprague-Dawley rats; rats, 7 days", "value": "25.0 ± 0.8", "unit": "µmol/L"}
    ]},
    {"smiles": "O=C(O)c1nc(=O)[nH]c(=O)[nH]1", "note": "[OA, oxonic acid]", "values": [
      {"measurement": "Kf lower than RK control group", "setting": "[1]", "value": 50, "unit": "%"},
      {"measurement": "SNGFR lower than RK control group", "setting": "[1]", "value": 40, "unit": "%"},
      {"measurement": "afferent resistance higher compared to RK control", "setting": "[1]", "value": 120, "unit": "%"},
      {"measurement": "efferent resistance higher compared to RK control", "setting": "[1]", "value": 80, "unit": "%"},
      {"measurement": "glomerular plasma flow lower than RK control group", "setting": "[1]", "value": 40, "unit": "%"},
      {"measurement": "GFR", "setting": "[1]; [4]", "value": "0.4 ± 0.1", "unit": "mL/min"},
      {"measurement": "KF (ultrafiltration coefficient)", "setting": "[1]; [4]", "value": "0.02 nl/s/mmHg and 0.024 ± 0.003 nl/s/mmHg"},
      {"measurement": "MAP (mean arterial pressure)", "setting": "[1]; [4]", "value": "184 ± 6", "unit": "mmHg"},
      {"measurement": "PGC (glomerular capillary pressure)", "setting": "[1]; [4]", "value": "62 mmHg and 62 ± 1 mmHg"},
      {"measurement": "QA (glomerular plasma flow)", "setting": "[1]; [4]", "value": "147 nL/min and 146.5 ± 20.4 nL/min"},
      {"measurement": "RA (afferent resistance)", "setting": "[1]; [4]", "value": "4.6 dyn/s/cm^−5 and 4.55 ± 0.66 dyn/s/cm^−5"},
      {"measurement": "RE (efferent resistance)", "setting": "[1]; [4]", "value": "1.8 dyn/s/cm^−5 and 1.83 ± 022 dyn/s/cm^−5"},
      {"measurement": "SNGFR (single-nephron GFR)", "setting": "[1]; [4]", "value": "40.6 nL/min and 40.7 ± 6.0 nL/min"},
      {"measurement": "Uprot (proteinuria)", "setting": "[2]; 25-28 days, mean±SE", "value": "246 ± 29", "unit": "mg/day"},
      {"measurement": "SUA (serum uric acid)", "setting": "[2]; OA 750 mg/kg gavage, AP 150 mg/L drinking water, 25-28 days, mean±SE", "value": "4.5 ± 0.4", "unit": "mg/dL"},
      {"measurement": "SBP (systolic blood pressure)", "setting": "[2]; tail cuff, 25-28 days, mean±SE", "value": "191 ± 10", "unit": "mmHg"},
      {"measurement": "additional rise of proteinuria", "setting": "[2]; vs RK control", "value": "two fold"},
      {"measurement": "further increase of SBP", "setting": "[2]; vs RK control", "value": 30, "unit": "mmHg"},
      {"measurement": "increase of serum uric acid", "setting": "[2]; vs RK control", "value": "two fold"},
      {"measurement": "afferent resistance higher", "setting": "[3]; hyperuricemic vs control", "value": 45, "unit": "%"},
      {"measurement": "decrease of SNGFR", "setting": "[3]; hyperuricemic vs control", "value": 35, "unit": "%"},
      {"measurement": "efferent resistance higher", "setting": "[3]; hyperuricemic vs control", "value": 64, "unit": "%"},
      {"measurement": "GFR", "setting": "[3]; [5]", "value": "0.71 ± 0.1", "unit": "mL/min"},
      {"measurement": "KF (ultrafiltration coefficient)", "setting": "[3]; [5]", "value": "0.027 ± 0.002", "unit": "nl/s/mmHg"},
      {"measurement": "MAP (mean arterial pressure)", "setting": "[3]; [5]", "value": "131 ± 4", "unit": "mmHg"},
      {"measurement": "PGC (glomerular capillary hydrostatic pressure)", "setting": "[3]; [5]", "value": "56 ± 2", "unit": "mmHg"},
      {"measurement": "QA (single-nephron plasma flow)", "setting": "[3]; [5]", "value": "66.1 ± 7.2", "unit": "nL/min"},
      {"measurement": "RA (afferent resistance)", "setting": "[3]; [5]", "value": "4.82 ± 0.67", "unit": "dyn/s/cm^−5"},
      {"measurement": "RE (efferent resistance)", "setting": "[3]; [5]", "value": "2.83 ± 0.19", "unit": "dyn/s/cm^−5"},
      {"measurement": "SNGFR (single-nephron GFR)", "setting": "[3]; [5]", "value": "17.8 ± 2", "unit": "nL/min"},
      {"measurement": "reduction of serum NOx vs control", "setting": "Male Sprague-Dawley rats; hyperuricemic rats at both 1 day and 7 days", "value": "40-50%"},
      {"measurement": "serum uric acid", "setting": "Male Sprague-Dawley rats; rats, 1 day", "value": "1.7 ± 0.7", "unit": "mg/dL"},
      {"measurement": "Serum nitrites and nitrates (NOx)", "setting": "Male Sprague-Dawley rats; rats, 1 day", "value": "15.6 ± 0.4", "unit": "µmol/L"},
      {"measurement": "serum uric acid", "setting": "Male Sprague-Dawley rats; rats, 7 days", "value": "1.8 ± 0.4", "unit": "mg/dL"},
      {"measurement": "Serum nitrites and nitrates (NOx)", "setting": "Male Sprague-Dawley rats; rats, 7 days", "value": "14.6 ± 1.1", "unit": "µmol/L"},
      {"measurement": "systolic blood pressure", "setting": "Male Sprague-Dawley rats; rats, 7 days, tail cuff", "value": "178±18", "unit": "mm Hg"}
    ]}
  ]
}
